Positions of bridges follow the written chain, without caps; N, C: chain ends. Non-standard residues stand in square brackets, D forms with d. Nle = CCCC[C@H](N)C(=O)O; AEEA = NCCOCCOCC(=O)O; Fluo = fluorescein
Tests used:
Assay type in all cases: cell-based
HeLa cells = assay: Cell penetration (cellular uptake by confocal microscopy) in HeLa cells; settings: 2 μM CPP; for penetration of HeLa cells (in words) / localization of fluorescence in HeLa cells: confocal microscopy; for penetration of HeLa cells (in words): intracellular signal; for cell penetration, HeLa(t2 h): t 2 h
Procedure: (§1) The peptides of the invention were tested for cell penetration in HeLa and HEK293T cell lines.
(§2) Materials: The HeLa (DSMZ) and HEK293T cells were maintained in growth media and then passaged every 2-3 days. Growth media for HeLa cells was RPMI 1640, 10% fetal calf serum, MEM-non-essential amino acids, sodium pyruvate and L-glutamine (GIBCO). Growth media for HEK293T DMEM was supplemented with 10% fetal calf serum, MEM-non-essential amino acids, sodium pyruvate and glutamine (all GIBCO).
(§3) Methods and Procedures: Cells were plated onto μ-slide 8 well chambered coverslips (IBIDI) with ibidi standard-bottom and cultured overnight. Peptide stocks were prepared in MillQ and were diluted in cell growth media for cellular uptake studies. Cells were carefully washed with culture medium without fetal calf serum, incubated with 2 μM CPP concentration in absence of fetal calf serum and analyzed by confocal microscopy regarding uptake efficiency and localization over 2 h at 37° C. Finally, trypan blue (0.4% end concentration) was administered to quench cell surface fluorescence followed by an endpoint imaging step. Plates were imaged with an excitation at 488 nm and detection of fluorescence over 500-550 nm (fluorescein) using a TCS SP5 confocal microscope (Leica 174 Microsystems, Mannheim, Germany) equipped with an HCX PL APO 175 63×N.A. 1.2 water immersion lens and a temperature-controlled microscope stage.

Jurkat = assay: Cell penetration (cellular uptake by confocal microscopy) in Jurkat cells; settings: t 2 h, 2 μM CPP, no fetal calf serum, 37° C., fluorescein fluorescence
Procedure: as §3

HEK293T cells = assay: Cell penetration (cellular uptake by confocal microscopy) in HEK293T cells; settings: 2 μM CPP; for cell penetration, HEK293T (t2 h): t 2 h, no fetal calf serum, 37° C., fluorescein fluorescence
Procedure: as §1, §2, §3

[1] = no fetal calf serum, 37° C., fluorescein fluorescence

Substance	penetration of HeLa cells (in words) (HeLa cells)	cell penetration, HeLa(t2 h) (HeLa cells; [1])	cell penetration, Jurkat (t2 h) (Jurkat)	cell penetration, HEK293T (t2 h) (HEK293T cells)	localization of fluorescence in HeLa cells (HeLa cells)	localization of fluorescence in HEK293T cells (HEK293T cells; confocal microscopy)	cell penetration, HeLa (t30 min) (HeLa cells; t 30 min, no fetal calf serum, 37° C., fluorescein fluorescence)
Fluo-(D-Met)-Ile-(D-Ile)-Leu-Ile-Ile-Gly-Ser-Thr-Ser-Arg-Asp-His-Nle-Val-Leu-His-Glu-Tyr-Val-Asn-Ala-Ala-Gly-Ile-Thr-Ado-NH2 (Fluo-[dM]I[dI]LIIGSTSRDH[Nle]VLHEYVNAAGIT-{AEEA-NH2}) [Example 5]	low intracellular signals	0.22	0.18	0.5			
Fluo-cyclo(Lys-Nle-Ile-Ile-Leu-Ile-Ile-Asp)-Gly-Ser-Thr-Ser-Arg-Asp-His-Nle-Val-Leu-His-Glu-Tyr-Val-Asn-Ala-Ala-Gly-Ile-Thr-Ado-NH2 (Fluo-K[Nle]IILIIDGSTSRDH[Nle]VLHEYVNAAGIT-{AEEA-NH2}; lactam 1-8) [Example 3]	low intracellular signals	0.28	0.77	0.35			
Fluo-cyclo(Lys-Ile-Ile-Ile-Ile-Asp)-Gly-Ser-Thr-Ser-Arg-Asp-His-Nle-Val-Leu-His-Glu-Tyr-Val-Asn-Ala-Ala-Gly-Ile-Thr-Ado-NH2 (Fluo-KIIIIDGSTSRDH[Nle]VLHEYVNAAGIT-{AEEA-NH2}; lactam 1-6) [Example 2]	low intracellular signals	0.18	0.9	0.23			
Fluo-Met-Ile-Ile-Leu-Ile-Ile-Met-Gly-Val-Ala-Asp-Leu-Ile-Lys-Lys-Phe-Glu-Ser-Ile-Ser-Lys-Glu-Glu-NH2 [Example 6]	low intracellular signals	0.14	0.44	0.08			
Fluo-Phe-Ile-cyclo(Asp-Ile-Ile-Ile-Lys)-Ile-Leu-Leu-Ile-Gly-Ser-Thr-Ser-Arg-Asp-His-Nle-Val-Leu-His-Glu-Tyr-Val-Asn-Ala-Ala-Gly-Ile-Thr-Ado-NH2 (Fluo-FIDIIIKILLIGSTSRDH[Nle]VLHEYVNAAGIT-{AEEA-NH2}; lactam 3-7) [Example 7]	high	0.28	1.35	0.28	localized in endosomes	pronounced cytosolic and partly endosomal fluorescence	
Fluo-Nle-Ile-Ile-Leu-Ile-Ile-Gly-Ser-Thr-Ser-Arg-Asp-His-Nle-Val-Leu-His-Glu-Tyr-Val-Asn-Ala-Ala-Gly-Ile-Thr-Ado-NH2 (Fluo-[Nle]IILIIGSTSRDH[Nle]VLHEYVNAAGIT-{AEEA-NH2}) [Example 4]		0.12	0.85	0.16			
Fluo-Met-Ile-Ile-Leu-Ile-Ile-Gly-Ser-Thr-Ser-Arg-Asp-His-Met-Val-Leu-His-Glu-Tyr-Val-Asn-Ala-Ala-Gly-Ile-Thr-NH2 (fluorescein-MIILIIGSTSRDHMVLHEYVNAAGIT-NH2) [Example 1]	high	0.11			localized in endosomes and cytosol		0.13

From US20170369529A1, “CELL PENETRATING PEPTIDES” (Hoffmann-La Roche Inc., priority 2014, published 2017)
